Experimental data taken from patent US11525063B2, “Fluorescent oxygen sensing ink” (The Board of Trustees of Western Michigan University, priority 2018, dated 2022).
Like-named read-outs stand apart in the source and are kept apart here.

Experiments:
[1] = Effect of sterilization process (H2O2 vapor treatment) on emission peak; format: physicochemical
Method: The fluorescent properties of two materials being encapsulated in both poly-styrene and PDMS (polydimethylsiloxane) polymer binder materials were measured to determine the suitability of the materials in an oxygen sensing system. […] Then 20 μL of mixed solution was cast onto filter paper to form a patch with a diameter of 8 mm. The patch was left in the nitrogen chamber for drying for 24-hours before testing. The PDMS encapsulated sensing patches were fabricated by firstly depositing dye solution onto the filter paper. PDMS was then added to the filter paper after the removal of the solvent. The same amount of dye was used for all samples. The fluorescence spectrum was measured using a UV spectrophotometer. A zero oxygen solution was prepared by nitrogen bubbling a 0.15 mol/L Na2SO3 solution for 30 minutes.

[2] = test system: L-929 mouse fibroblast cells
Method: (§1) All samples were ≤0.5 mm thick and prepared as 8 mm-diameter discs (surface area of 0.50 cm^2). […] An aliquot was counted using trypan blue, and then cells were re-suspended in complete growth medium at a density of 1×10^5 cells/ml. […] After 24 h, the culture medium was removed and replaced with 100 μl of extractant. Some wells received sodium dodecyl sulfate (0 to 400 μM in EMEM; positive controls), low-density polyethylene extract (1.25 cm^2 LDPE/ml EMEM; negative control), or complete growth medium alone. Cells were then cultured for an additional 24 h. Images (mag. of 100× and 200×) of cell cultures were recorded by photo microscopy using a Olympus CK40 inverted microscope and Insight2 SPOT camera (Diagnostic Imaging) and the number of attached and dead cells were manually counted at a later time using ImageJ (NIH). […] Subsequently, cells in culture plates were washed once with Hank's Balanced Salt Solution and metabolic activity was measured by incubating cells with 100 μl of WST-1 cell proliferation reagent (Roche Diagnostics) for up to 4 h at 37° C. To determine cytotoxicity, absorbance of the medium in wells was measured at 450 nm after 2 and 4 h using a microplate reader (PHERAstar) and was corrected using absorbance measurements at 630 nm and using blanks. To check for mycoplasma contamination of the cultures, medium was saved and tested using the luminescent MycoAlert Plus mycoplasma detection kit (Lonza).
Absorbance is proportional to the amount of formazan product generated by the metabolic activity of cells. Thus, lower absorbance values correlate with increased cytotoxicity.
An aliquot was counted using trypan blue, and then cells were re-suspended in complete growth medium at a density of 1×10^5 cells/ml. […] After 24 h, the culture medium was removed and replaced with 100 μl of extractant. Some wells received sodium dodecyl sulfate (SDS; 0 to 400 μM in EMEM; positive controls), low-density polyethylene extract (1.25 cm^2 LDPE/ml EMEM; negative control) or complete growth medium alone. Cells were then cultured for an additional 24 h. Subsequently, cells in culture plates were washed once with HBSS and metabolic activity was measured by incubating cells with 100 μl of WST-1 cell proliferation reagent (Roche Diagnostics) for up to 4 h at 37° C.
To determine cytotoxicity, absorbance of the medium in wells was measured at 450 nm after 2 and/or 4 h using a microplate reader (PHERAstar) and was corrected using absorbance measurements at 630 nm and using blanks. Absorbance levels are proportional to the metabolic activity of cells and therefore inversely related to cytotoxicity. To check for mycoplasma contamination of the cultures, medium was saved and tested using the luminescent MycoAlert Plus mycoplasma detection kit (Lonza). Statistical significance was determined using analysis of variance and Tukey-Kramer post-test.

[3] = test system: L-929 mouse fibroblast cells; conditions: 150 μM SDS in EMEM, 24 h
Method: as §1, with “To check for mycoplasma contamination of the cultures, medium was saved and tested using the luminescent MycoAlert Plus mycoplasma detection kit (Lonza).” left out

SMILES	stability to H2O2 vapor treatment [1]	Emission peak After Sterilization ([1]; after H2O2 vapor treatment)	Emission peak Before Sterilization ([1]; before H2O2 vapor treatment)	cytotoxicity of extract (conclusion in words) ([2]; cells treated 24 h with extract of Sterrad-sterilized sample)	cytotoxicity of extract (conclusion in words) ([2]; cells treated 24 h with extract of Sterrad-sterilized sample, listed as ruthenium alone on paper)	Mean absorbance (corrected, 450 nm) ([2]; cells treated 24 h with extract of Sterrad-sterilized sample, lower absorbance = more cytotoxic)	metabolic activity relative to cells cultured in EMEM alone ([2]; cells treated 24 h with extract, below 70% considered cytotoxic)	Morphology score [3]	Mean absorption reading ([2]; 300 μM SDS in EMEM, 24 h)	Concentrations of SDS that were cytotoxic ([2]; mouse)
[Cl-].[Cl-].[Ru+2].c1ccc(-c2ccnc3c2ccc2c(-c4ccccc4)ccnc23)cc1.c1ccc(-c2ccnc3c2ccc2c(-c4ccccc4)ccnc23)cc1.c1ccc(-c2ccnc3c2ccc2c(-c4ccccc4)ccnc23)cc1 [Ru(dpp)3Cl2, Tris(4,7-diphenyl-1,10-phenanthroline) ruthenium II dichloride]	more vulnerable	No emission peak detected	Emission peak detected	considerable cytotoxicity	cytotoxic	0.318	38.4%	–	–	–
CCCCCCCCCCCCOS(=O)(=O)[O-].[Na+] [SDS, sodium dodecyl sulfate, reference compound]	–	–	–	–	–	–	–	2	0	above 200 μM
